Assay results taken from ChEMBL document CHEMBL1152737, “Synthesis and biological evaluation of fused thio- and selenopyrans as new indolocarbazole analogues with aryl hydrocarbon receptor affinity” (Bioorg Med Chem, 2009).

System: Aryl hydrocarbon receptor (Cavia porcellus)
Assay: Activation of AhR expressed in guinea pig cytosolic fractions over expressed with XRE by ELISA based Ah-immunoassay relative to TCDD

**Q.** Which Activity does the source give for Cc1c2c3ccccc3nc-2sc2[nH]c3ccccc3c12 here?
**A.** 0.36

**Q.** With Cc1c2c3ccccc3nc-2[se]c2[nH]c3ccccc3c12 as the molecule, how does the Activity read?
**A.** 0.38

**Q.** For c1ccc2c3cc4c([nH]c5ccccc54)[se]c-3nc2c1, which Activity is on record?
**A.** 0.32

**Q.** For c1ccc2c3cc4c([nH]c5ccccc54)sc-3nc2c1, which Activity is on record?
**A.** 0.29

**Q.** How did the Activity turn out when O=c1c2c([nH]c3ccccc32)sc2[nH]c3ccccc3c12 was run?
**A.** 0.039

**Q.** Which Activity does the source give for c1ccc2c3cc4[nH]c5ccccc5c4sc-3nc2c1 here?
**A.** 0.132

**Q.** Which Activity does the source give for c1ccc2c(c1)[nH]c1cc3c(cc12)[nH]c1ccccc13 here?
**A.** 1.48

**Q.** With COc1ccc2nc3[se]c4[nH]c5ccc(OC)cc5c4c(C)c-3c2c1 as the molecule, how does the Activity read?
**A.** 0.013

**Q.** Which Activity does the source give for CC1(C)c2c([nH]c3ccccc23)Sc2[nH]c3ccccc3c21 here?
**A.** 0.0033

**Q.** With COc1ccc2nc3[se]c4[nH]c5ccc(OC)cc5c4cc-3c2c1 as the molecule, how does the Activity read?
**A.** 0.009

**Q.** For C1=Cc2sc3ccccc3c2Sc2c1sc1ccccc21, which Activity is on record?
**A.** 0.055

**Q.** With C1=Cc2sc3ccccc3c2[Se]c2c1sc1ccccc21 as the molecule, how does the Activity read?
**A.** 0.018
